In patent US20240398844A1, “PHENYLCOUMARINS FOR TREATING INFLAMMATION” (Ohio State Innovation Foundation, priority 2021, published 2024):

What was measured:
PPAR-γ = target: T1, PPAR-γ (Homo sapiens, UniProt P37231); test: PPAR-γ ELISA Assay in HeLa cells (in vitro PPAR-γ assay); type: cell-based; details: 50 μg/mL; for PPAR-γ activity in the in vitro assay (in words): versus positive control rosiglitazone
T1 construct: endogenous in cells; host or cells: HeLa
T1 sequence (P37231 1-505): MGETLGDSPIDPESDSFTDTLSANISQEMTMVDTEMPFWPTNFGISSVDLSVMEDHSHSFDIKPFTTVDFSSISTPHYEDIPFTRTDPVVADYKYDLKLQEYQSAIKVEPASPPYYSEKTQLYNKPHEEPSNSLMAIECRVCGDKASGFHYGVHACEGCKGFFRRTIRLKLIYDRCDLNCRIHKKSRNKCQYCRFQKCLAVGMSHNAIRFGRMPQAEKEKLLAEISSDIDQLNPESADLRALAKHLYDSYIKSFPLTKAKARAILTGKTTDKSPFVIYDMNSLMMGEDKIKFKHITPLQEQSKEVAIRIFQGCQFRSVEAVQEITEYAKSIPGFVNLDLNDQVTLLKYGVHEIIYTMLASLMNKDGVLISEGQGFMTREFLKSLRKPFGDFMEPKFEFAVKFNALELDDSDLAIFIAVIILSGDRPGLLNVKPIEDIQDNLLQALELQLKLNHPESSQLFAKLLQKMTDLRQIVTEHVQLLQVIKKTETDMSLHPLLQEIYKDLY
Description: In addition to the Western blot, the diverse library was also screened in the in vitro PPAR-γ assay. […] The compounds were tested at 50 μg/mL according to the protocol detailed in section 3.2.3.

PEPCK = test: Diabetic zebrafish Western blot, PEPCK expression; type: in vivo; details: 10 μM, FIG. 8
Description: Alloxan-induced diabetic zebrafish were treated with compounds for immunoblot to validate the newly developed animal model, determine the antidiabetic potential of natural product leads, evaluate glucose metabolism, and discover possible mechanisms of action.
At 72 hpf, naturally dechorionated zebrafish were sorted into a 24-well microplate with 10 fish per well. Type 2 diabetes was induced with the diabetogenic agent alloxan at a dose of 0.5 mg/mL in system water for 3 hours. The incubation solution was changed to 0.01% DMSO in system water with compounds at concentrations of 20 μg/mL or […], respectively. After 3 hours of treatment with natural product samples, 10 mg/mL D-glucose was administered in system water for 30 minutes, followed by 1 hour in fresh system water to metabolize the glucose and natural product leads. Upon completion of the 4-phase treatment cycle, zebrafish treatment groups were snap frozen into individual microcentrifuge tubes on dry ice, stored overnight at −80° C., thawed, homogenized with 2 μL PBS per animal, and centrifuged at 4° C. for 1 hour at 17,000 rpm. Protein content of homogenate supernatant was determined using the Pierce BCA Protein Assay kit (Pierce Biotechnology) and bovine serum albumin (BSA) standard curve. Absorbance of protein solutions from zebrafish homogenates and serial dilutions of the BSA standard were measured at 544 nm, using a FLUOstar Optima plate reader (BMG Labtechnologies GmbH, Inc.). Homogenates were analyzed by Western blot. Equal amounts of protein (20 μg) were combined with 4× lithium dodecyl sulphate (LDS) loading buffer (NuPAGE, Life Technologies, Carlsbad, CA, USA), brought to volume (15 μL) with PBS, and heated to 95° C. for 5 minutes. Proteins were resolved using NuPAGE Bis-Tris 4-12% gradient sodium dodecyl sulfate polyacrylamide gel electrophoresis (SDS-PAGE) gels together with SeeBlue Plus2 Pre-Stained Standard Ladder (Life Technologies).
Electrophoresis was performed using NuPAGE MES SDS Running Buffer and XCell SureLock Mini-Cell Electrophoresis System (Life Technologies). Separated proteins were transferred from the gel to a polyvinylidene fluoride (PVDF) membrane using tris buffered saline with Tween-20 (TBST) buffer. The blots were blocked in 3% BSA in TBST and subsequently probed using primary antibodies (1:1000 in 1% BSA in TBST) against each target overnight (Table 1). The secondary, horseradish peroxidase (HRP) conjugated antibodies (1:2000) were obtained from Santa Cruz Biotechnology Inc., (Santa Cruz, CA, USA). Conjugated antibodies were detected using SuperSignal West Femto chemiluminescent substrate from Pierce Biotechnology. […] Band density was quantified for proteins of interest using ImageJ Gel Analysis. […]

| SMILES | activation at 50 µg/mL (PPAR-γ; Table 4) | PPAR-γ activity in the in vitro assay (in words) (PPAR-γ) | PEPCK expression versus rosiglitazone (PEPCK) | % Activation PPAR-γ (PPAR-γ; Table 2) | % Activation PPAR-γ (PPAR-γ; Table 4) |
| --- | --- | --- | --- | --- | --- |
| COc1cc(O[C@@H]2OCC(O)(CO[C@@H]3OC(CO)[C@@H](O)C(O)C3O)C2O)c2c(-c3ccc(OC(C)C)c(O)c3)cc(=O)oc2c1 (single isomer, unassigned) [Compound 40] | 0% | loss of all activity | approximately equal efficacy to rosiglitazone | – | – |
| COc1cc(O[C@@H]2O[C@H](CO[C@@H]3OCC(O)(CO)[C@H]3O)[C@@H](O)[C@H](O)[C@H]2O)c2c(-c3ccc(O)c(O)c3)cc(=O)oc2c1 (stereo partly drawn) [Compound 24, 5-O-[β-D-apiofuranosyl-(1→6)-β-D-glucopyranosyl]-7-methoxy-3′,4′-dihydroxy-4-phenylcoumarin] | – | top performers | greater gluconeogenic effect than rosiglitazone | 101% | 101% |
